Where two headings read alike, the source gives them in different places.
How the values were obtained:
virus HIV1 = experiment: Infectivity of HIV1 for normal human T lymphocytes after 10 min treatment of the virus; reverse transcriptase activity (ATI) in culture supernatants; assay type: cell-based
Procedure: Pour l'étude du pouvoir infectieux résiduel après traitement des préparations virales, le milieu de culture des lymphocytes T humains normaux (milieu complet) correspond au milieu ci-dessus auquel sont ajoutés 10 % d'interleukine II, du polybrène (2 µg/ml) et du sérum anti-interféron humain 1/2500 (M.A. REY et al., Biochem. Biophys. Res. Com., 1984, 121, 126-133).
L'infectivité est étudiée sur des lymphocytes T obtenus à partir du sang périphérique d'un donneur humain sain, et séparés sur un gradient de Ficoll.
Les lymphocytes sont stimulés pendant 3 jours par de la phytohémagglutinine P (PHA-P), diluée au 1/500 et cultivés dans du milieu complet. Les cellules T blastiques sont infectées par le virus, traité ou non, pour mettre en évidence le pouvoir infectieux résiduel.
Le virus est obtenu à partir d'un surnageant de culture de la lignée CEM infectée par HIV1. Cette lignée T lymphoblastoïde infectée par HIV1 est utilisée pour la production virale.
Le titre des surnageants utilisés est évalué après dosage de l'activité transcriptase inverse (ATI) du virus.
Dans les essais qui suivent, on a utilisé un surnageant dont l'ATI est de 1,8.10^6 cpm/ml. 2. Méthodes :
• Préparation de la solution virale : plusieurs tubes contenant 1 ml de surnageant viral, ATI 1,8.10^6 cmp/ml sont concentrés par ultracentrifugation. Les culots de virus ainsi obtenus sont repris soit par chacune des dilutions de produit réalisées dans de l'eau bidistillée stérile, soit par de l'eau (virus témoin non traité). • Traitement des préparations virales : les préparations virales concentrées sont toutes traitées selon le protocole indiqué ci-dessous : • . échantillons viraux traités : les culots de virus concentrés par ultracentrifugation sont resuspendus dans 100 µl de chacune des concentrations en produits étudiés et incubés pendant 10 minutes. • . échantillon viral témoin : témoin virus non traité : le produit est remplacé par 100 µl d'eau bidistillée stérile. A la suite de ce temps d'incubation de 10 minutes, le virus présent dans chaque échantillon est rincé puis reconcentré par addition de 12 ml de milieu RPMI 1640 et ultracentrifugation. Les culots de virus sont alors repris dans 1 ml de milieu complet et utilisés pour l'infection de lymphocytes T humains normaux. • Mesure de l'infectivité des échantillons : 4.10^6 lymphocytes T humains normaux sont infectés avec chacune des préparations virales traitées ou témoins indiquées ci-dessus. L'infection des cellules T est réalisée selon une méthode précédemment décrite (F. BARRE-SINOUSSI et al., Science, 1983, 220, 868-871) : en résumé 4.10^6 cellules en suspension dans 1 ml de milieu complet sont incubées avec 1 ml de chacune des préparations virales traitées ou témoins pendant 1 heure à 37°C. Après 2 lavages par plusieurs ml de milieu de culture, les suspensions cellulaires sont ajustées à la concentration de 1.10^6 cellules par ml. Le jour de l'infection est considéré comme jour 0. • . Cellules témoin : 4.10^6 lymphocytes T sont cultivés et passés tous les 3 ou 4 jours dans les mêmes conditions que tous les autres échantillons. Ce témoin correspond au témoin négatif de la production virale au cours de la manipulation. La production virale au cours du temps est déterminée en mesurant l'activité transcriptase inverse présente dans les surnageants de culture selon le protocole décrit ci-dessous. • . Mesure de l'activité transcriptase inverse des préparations virales témoins et des échantillons viraux traités par les produits : ce dosage permet d'évaluer la présence de virus résiduel non inactivé dans l'échantillon de départ. Il est réalisé à partir de 1 ml de surnageant de culture, prélevé tous les 3 ou 4 jours et ultracentrifugé.
Les activités enzymatiques sont mesurées dans 50 µl d'un mélange réactionnel contenant 50 mM Tris pH 7,8, 20 mM MgCl2, 20 mM KCl, 2 mM dithiotréitol, 0,25 OD/ml oligo dT, 0,25 OD/ml poly rA, 0,1 % Triton X 100 et 2,5 µCi 3H DTTP. […]

spermatozoïdes = experiment: Spermicidal action: vitality of spermatozoa (eosin-nigrosin, 100 spermatozoa examined); assay type: cell-based; conditions: Homo sapiens, Sperm; for viability at 0.4 %: read-out: vitalité des spermatozoïdes, solution 0,4 %; for viability at 0.6 %: read-out: vitalité des spermatozoïdes, solution 0,6 %; for viability at 0.8 %: read-out: vitalité des spermatozoïdes, solution 0,8 %; for viability at 1 %: read-out: vitalité des spermatozoïdes, solution 1 %
From the text: Les différents échantillons de sperme (une goutte de sperme/échantillon) sont obtenus à partir de volontaires sains.
Une goutte de sperme est traitée par l'éosinenigrosine. Un frottis est ensuite réalisé et cent spermatozoïdes sont examinés au microscope. Les cellules mortes sont colorées en rouge, soit totalement, soit partiellement. Les cellules vivantes sont incolores.
Les substances étudiées ont été, le Bardac® et le digluconate de chlorhexidine, testés seuls et en association conformément à l'invention. Les différentes étapes du protocole sont indiquées aux Tableaux IV à VI.
Le temps de contact maximum des différentes substances et du sperme a été limité à 3 minutes afin de garantir l'efficacité de la méthode dans les conditions d'utilisation. La concentration des solutions actives dans le sperme a été limitée à 10 % afin de diminuer les risques de toxicité des produits pour les muqueuses. TABLEAU IV

[1] = 1 min, 1 Min, 5 % dans le sperme
[2] = 1 min, 1 Min, 10 % dans le sperme
[3] = 0.05 h, 3 Min, 5 % dans le sperme
[4] = 0.05 h, 3 Min, 10 % dans le sperme

## CCCCCCCCCC[N+](C)(C)CCCCCCCCCC [Bardac®, chlorure de didécyldiméthylammonium]
Virus HIV1; Bardac® 0,01 %, J3
  ATI dans les surnageants: 334 cpm/ml
Virus HIV1; Bardac® 0,01 %, J6
  ATI dans les surnageants: 222 cpm/ml
Virus HIV1; Bardac® 0,01 %, J10
  ATI dans les surnageants: 1768 cpm/ml
Virus HIV1; Bardac® 0,01 %, J13
  ATI dans les surnageants: 1592 cpm/ml
Virus HIV1; Bardac® 0,01 %, J17
  ATI dans les surnageants: 190 cpm/ml
Virus HIV1; Bardac® 0,01 %, J20
  ATI dans les surnageants: 390 cpm/ml
Virus HIV1; Bardac® 0,01 %, J23
  ATI dans les surnageants: 1328 cpm/ml
Virus HIV1; Bardac® 0,01 %, J27
  ATI dans les surnageants: 780 cpm/ml
Virus HIV1; Bardac® 0,01 %, J30
  ATI dans les surnageants: 1000 cpm/ml
Virus HIV1; Bardac® 0,0004 %, J3
  ATI dans les surnageants: 702 cpm/ml
Virus HIV1; Bardac® 0,0004 %, J6
  ATI dans les surnageants: 18136 cpm/ml
Virus HIV1; Bardac® 0,0004 %, J10
  ATI dans les surnageants: 117326 cpm/ml
Virus HIV1; Bardac® 0,0004 %, J13
  ATI dans les surnageants: 74214 cpm/ml
Virus HIV1; Bardac® 0,0004 %, J17
  ATI dans les surnageants: 50674 cpm/ml
Virus HIV1; Bardac® 0,0004 %, J20
  ATI dans les surnageants: 22478 cpm/ml
Virus HIV1; Bardac® 0,0004 %, J23
  ATI dans les surnageants: 13806 cpm/ml
Virus HIV1; Bardac® 0,0004 %, J27
  ATI dans les surnageants: 7800 cpm/ml
Virus HIV1; Bardac® 0,0004 %, J30
  ATI dans les surnageants: 4426 cpm/ml
Virus HIV1; Bardac® 0,002 %, J3
  ATI dans les surnageants: 464 cpm/ml
Virus HIV1; Bardac® 0,002 %, J6
  ATI dans les surnageants: 2472 cpm/ml
Virus HIV1; Bardac® 0,002 %, J10
  ATI dans les surnageants: 16066 cpm/ml
Virus HIV1; Bardac® 0,002 %, J13
  ATI dans les surnageants: 24902 cpm/ml
Virus HIV1; Bardac® 0,002 %, J17
  ATI dans les surnageants: 77754 cpm/ml
Virus HIV1; Bardac® 0,002 %, J20
  ATI dans les surnageants: 75554 cpm/ml
Virus HIV1; Bardac® 0,002 %, J23
  ATI dans les surnageants: 101394 cpm/ml
Virus HIV1; Bardac® 0,002 %, J27
  ATI dans les surnageants: 80560 cpm/ml
Virus HIV1; Bardac® 0,002 %, J30
  ATI dans les surnageants: 64692 cpm/ml
Virus HIV1; Bardac® 0,004 %, J3
  ATI dans les surnageants: 346 cpm/ml
Virus HIV1; Bardac® 0,004 %, J6
  ATI dans les surnageants: 298 cpm/ml
Virus HIV1; Bardac® 0,004 %, J10
  ATI dans les surnageants: 160 cpm/ml
Virus HIV1; Bardac® 0,004 %, J13
  ATI dans les surnageants: 170 cpm/ml
Virus HIV1; Bardac® 0,004 %, J17
  ATI dans les surnageants: 350 cpm/ml
Virus HIV1; Bardac® 0,004 %, J20
  ATI dans les surnageants: 218 cpm/ml
Virus HIV1; Bardac® 0,004 %, J23
  ATI dans les surnageants: 444 cpm/ml
Virus HIV1; Bardac® 0,004 %, J27
  ATI dans les surnageants: 244 cpm/ml
Virus HIV1; Bardac® 0,004 %, J30
  ATI dans les surnageants: 264 cpm/ml
Virus HIV1; Bardac® 0,006 %, J3
  ATI dans les surnageants: 320 cpm/ml
Virus HIV1; Bardac® 0,006 %, J6
  ATI dans les surnageants: 326 cpm/ml
Virus HIV1; Bardac® 0,006 %, J10
  ATI dans les surnageants: 204 cpm/ml
Virus HIV1; Bardac® 0,006 %, J13
  ATI dans les surnageants: 248 cpm/ml
Virus HIV1; Bardac® 0,006 %, J17
  ATI dans les surnageants: 364 cpm/ml
Virus HIV1; Bardac® 0,006 %, J20
  ATI dans les surnageants: 180 cpm/ml
Virus HIV1; Bardac® 0,006 %, J23
  ATI dans les surnageants: 328 cpm/ml
Virus HIV1; Bardac® 0,006 %, J27
  ATI dans les surnageants: 588 cpm/ml
Virus HIV1; Bardac® 0,006 %, J30
  ATI dans les surnageants: 196 cpm/ml
Virus HIV1; produit utilisé seul, 0,002
  action virucide: ne sont pas virucides
spermatozoïdes; [1]
  viability at 0.4 %: 10.7 ± 7.6%
  viability at 0.6 %: 10.5 ± 9.7%
  viability at 0.8 %: 9.7 ± 10.2%
  viability at 1 %: 0%
spermatozoïdes; [2]
  viability at 0.4 %: 5 ± 6.4%
  viability at 0.6 %: 9.2 ± 12.9%
  viability at 0.8 %: 1.8 ± 2.5%
  viability at 1 %: 0%
spermatozoïdes; [3]
  viability at 0.4 %: 0.8 ± 1.2%
  viability at 0.6 %: 2.2 ± 4.5%
  viability at 0.8 %: 0%
  viability at 1 %: 0%
spermatozoïdes; [4]
  viability at 0.4 %: 0.8 ± 1%
  viability at 0.6 %: 0.4 ± 0.9%
  viability at 0.8 %: 0%
  viability at 1 %: 0%
